Legend:
in vitro [1] = settings: rat
in vitro [2] = settings: human
[3] = Acid dissociation constant, pKa of the compound; type: physicochemical
[4] = Tmax in Beagle dog at 1 mg/kg, po; type: ADME, organism-based, Canis lupus familiaris; settings: in vivo
[5] = rat, in vivo, po, 3 mg/kg, 24 h
[6] = Apparent permeability of the compound in human Caco-2 cells at 10 uM; type: ADME, cell-based
[7] = Oral bioavailability in Beagle dog at 1 mg/kg; type: ADME, organism-based, Canis lupus familiaris; settings: in vivo
[8] = Solubility of the compound in water; type: physicochemical
[9] = Solubility of the compound in buffer at pH 2 to 7 at 37 degC; type: physicochemical
[10] = Clearance in Beagle dog at 1 mg/kg, iv; type: ADME, organism-based, Canis lupus familiaris; settings: in vivo
[11] = AUC (0 to 24 hrs) in Beagle dog at 1 mg/kg, po; type: ADME, organism-based, Canis lupus familiaris; design: dose 1 mg/kg, route po; settings: in vivo
[12] = Terminal half life in Beagle dog at 1 mg/kg, iv; type: ADME, organism-based, Canis lupus familiaris; settings: in vivo, read-out: beta t1/2 (converted)
[13] = Volume of distribution in Beagle dog at 1 mg/kg, iv; type: ADME, organism-based, Canis lupus familiaris; settings: in vivo
[14] = rat, in vivo, po, 3 mg/kg, 24 h; remark: listed apart in the source
in vivo [15] = settings: Wistar, rat, po, 3 mg/kg
in vivo [16] = settings: Wistar, rat, po, 3 mg/kg; remark: listed apart in the source
in vivo [17] = settings: Wistar, rat, iv, 1 mg/kg
in vivo [18] = settings: Wistar, rat, po, 3 mg/kg; remark: listed apart in the source
in vivo [19] = settings: Wistar, rat, po, 3 mg/kg; remark: listed apart in the source
in vivo [20] = settings: Wistar, rat, brain and plasma, po, 10 mg/kg
[21] = rat, in vivo, po, 3 mg/kg, 24 h; remark: listed apart in the source

Vdss [5] | metabolised at 0.5 h (in vitro [1]; liver microsomes) | metabolised at 0.5 h (in vitro [2]; liver microsomes) | AUC [14] | half-life at 24 h (in vivo [15]) | Cmax at 24 h (in vivo [16]) | clearance at 24 h (in vivo [17]) | bioavailability at 24 h (in vivo [18]) | AUC at 24 h (in vivo [19]) | Kp at 1 h (in vivo [20]) | Structure (SMILES) | other results
 |  |  |  |  |  |  |  |  |  | CC(C)n1nc(-c2noc(C3CCN(CC4CCOCC4)CC3)n2)c2ccccc21 | metabolised at 0.5 h (in vitro [1]; microsomes): 64.1%; metabolised at 0.5 h (in vitro [2]; microsomes): 40.4%
8 L/kg | 25.1% | 26.2% |  |  |  |  |  |  |  | COCCCN1CCC(c2nnc(-c3nn(C(C)C)c4ccccc34)o2)CC1.O=C(O)C(=O)O | pKa [3]: 8.4; Tmax [4]: 30 min; Papp at 10 µM [6]: 38 ×10⁻⁶ cm/s; bioavailability [7]: 72%; solubility [8]: 17.1 mg/mL; solubility [9]: 20 mg/mL; clearance [10]: 18 mL/min/kg; AUC(0-t) [11]: 711 ng·h/mL; half-life [12]: 360 min; Vd [13]: 5.1 L/kg
8 L/kg | 83.8% | 43.6% | 394 ng·h/mL | 102 min |  |  |  |  |  | CC(C)n1nc(-c2nnc(C3CCN(CC4CC4)CC3)o2)c2ccccc21 | 
4.9 L/kg | 55.1% | 62.5% |  | 138 min | 14 ng/mL | 81 mL/min/kg | 2.6% | 16 ng·h/mL |  | CC(C)n1nc(-c2nnc(C3CCN(CC4CCC4)CC3)o2)c2ccccc21 | 
10 L/kg | 35.7% | 15.3% | 133 ng·h/mL | 114 min | 91 ng/mL |  |  |  | 3.6 | CC(C)N1CCC(c2nnc(-c3nn(C(C)C)c4ccccc34)o2)CC1 | F [21]: 9%
7.6 L/kg |  |  |  | 90 min | 17 ng/mL | 62 mL/min/kg | 2% | 22 ng·h/mL | 1.6 | CC(C)n1c(=O)c(C(=O)NCCCN2CCCCC2)c(O)c2ccsc21 [PRX-03140] | 
